{
  "source": "patent US20230114627A1",
  "about": "“COMPOSITION COMPRISING A METAL ASCORBO-CAMPHORATE COMPOUND AND METHOD FOR PREVENTION AND/OR TREATMENT OF PAPILLOMAVIRUS INFECTIONS” (MGB PHARMA Inc., priority 2020, published 2023)",
  "type_in_all_cases": "cell-based",
  "key": {"[1]": {"test_system": "CaCo-2 (intestinal cells)", "assay": "XTT cell viability (KIT Tox-2) on CaCo-2", "conditions": "CaCo-2, 24 hours, 1 μM to 500 μM tested", "experimental": "(§1) In this example, the cell viability as a measure of non-toxicity was assessed using KIT Tox-2 XTT Sigma Aldrich, where cell viability was measured in terms of the ability of cells to degrade a colorless compound into a colored compound (mitochondrial enzymes) using color intensity as being proportional to the cell viability. Three cell lines as models were used including HEC-1A (line of endocervical origin), SiHa (vaginal cells), and CaCo-2 (intestinal cells). […] KIT Tox-2 XTT Sigma Aldrich."}, "HEC-1A": {"test_system": "HEC-1A", "assay": "Transepithelial electrical resistance (TEER) of HEC-1A monostratified epithelium", "conditions": "up to 500 μM, 24 hours"}, "Vero cells": {"test_system": "Vero cells", "assay": "MTT cytotoxicity assay on Vero cells", "experimental": "The cytotoxicity study was conducted on three types of cells: on Vero cells, on human diploid MRC5 cells (human fibroblast and embryonic type), and on Cos-7 cells. […] The latter forms crystals with the highly metabolic living cells.\nThe absorbance at 490 nm of the dissolved crystals corresponds to the number of living cells.\nIn a first series of tests, the Cytotoxicity of said ascorbo-camphorate on Vero cells was verified with these solutions at dilution rates ranging from one tenth to one billionth."}, "[2]": {"test_system": "HEC-1A (line of endocervical origin)", "assay": "XTT cell viability (KIT Tox-2) on HEC-1A", "conditions": "24 hours, 1 μM to 500 μM tested", "experimental": "as §1"}, "CaCo-2": {"test_system": "CaCo-2", "assay": "Transepithelial electrical resistance (TEER) of CaCo-2 monostratified epithelium", "conditions": "CaCo-2, up to 500 μM, 24 hours"}},
  "data": [
    {"substance": "zinc tetra-ascorbo-camphorate [C14]", "values": [
      {"measurement": "concentrations without toxicity to epithelial cells", "setting": "[1]", "result": "less than or equal to 125 μM"},
      {"measurement": "effect on TEER", "setting": "HEC-1A", "result": "does not affect the TEER"},
      {"measurement": "percentage of living cells remaining", "setting": "Vero cells; 50-fold dilution of 0.05155 M stock", "result": "greater than or equal to 50%"},
      {"measurement": "molarity of solutions tolerable by Vero cells (upper limit, value excluded)", "setting": "Vero cells; lower limit tested 5.15.10^−5 μM", "result": "< 1031", "unit": "µM"},
      {"measurement": "concentrations without toxicity to epithelial cells", "setting": "[2]", "result": "less than or equal to 125 μM"},
      {"measurement": "effect on TEER", "setting": "CaCo-2", "result": "does not affect the TEER"}
    ]}
  ]
}
